Structures can show the parent of a compound that is named as a salt.
Experiments:
[1] = target: T1, human neutrophil elastase (Homo sapiens, UniProt P08246); assay: In vitro assay of human neutrophil elastase; type: biochemical; conditions: in vitro elastase test; purified human neutrophil elastase 11.8 nM, pH 8.6, 15 min at 30° C., 0.6 mM MeO-succinyl-alanyl-alanyl-prolyl-valyl-p-nitroanilide
T1 sequence (P08246 30-267): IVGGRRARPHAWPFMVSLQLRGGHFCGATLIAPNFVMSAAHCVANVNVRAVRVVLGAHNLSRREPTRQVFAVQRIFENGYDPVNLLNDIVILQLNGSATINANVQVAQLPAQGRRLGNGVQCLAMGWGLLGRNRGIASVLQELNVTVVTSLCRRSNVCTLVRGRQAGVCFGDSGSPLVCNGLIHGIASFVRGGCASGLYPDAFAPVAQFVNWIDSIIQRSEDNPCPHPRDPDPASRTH
Protocol: In vitro assays of human neutrophil elastase Assay contents: 50 mM Tris/HCl (pH 8.6) 150 mM NaCl 11.8 nM purified human neutrophil elastase Suitable concentrations of compound under test diluted with water from a 10 mM stock solution in dimethylsulphoxide. Values above are final concentrations after the addition of substrate solution (see below). The mixture above is incubated for fifteen minutes at 30° C. at which time the remaining elastase activity is measured for 10 minutes in a BioTek 340i plate-reader, after the addition of 0.6 mM MeO-succinyl-alanyl-alanyl-prolyl-valyl-p-nitroanilide. The rate of increase in absorbance at 405 nm is proportional to elastase activity. Enzyme activity is plotted against concentration of inhibitor and an IC50 determined using curve fitting software.

elastase = target: T2, elastase (Homo sapiens, UniProt P08246); assay: Human whole blood elastase inhibition assay; type: cell-based; conditions: heparinised, 30 minutes at 37° C.
T2 construct: fresh, heparinised human whole blood; endogenous in cells; host or cells: leukocytes (neutrophils) of fresh heparinised human whole blood
T2 sequence (P08246 30-267): T1 sequence (P08246 30-267)
Protocol: Human whole blood elastase inhibition assay
Triplicate aliquots of fresh, heparinised human whole blood (200 μl) are added to appropriately diluted samples (10 μl) of compounds under test. […] Samples are mixed thoroughly by pipette, and are then incubated for 30 minutes at 37° C. Cold red cell lysis buffer (750 μl of 155 mM ammonium chloride, 0.12 mM EDTA, 10 mM potassium bicarbonate, pH 7.4) is then added. Tubes are capped, inverted several times, and maintained at 4° C. for 15 minutes, inverting every 5 minutes. After centrifugation at 250 g for 10 minutes, at 4° C., the resulting pelleted cells are washed. The wash is with saline (300 μl), followed by centrifugation at 100 g for 10 minutes at 4° C. Pellets are washed twice more, before resuspension of the final cell pellet in buffer (200 μl of 100 mM Tris, 300 mM NaCl, 1% (w/v) HTAB, pH 8.6). Samples are stored at -20° C. After freeze-thawing of the samples four times, elastase activity is determined by a calorimetric assay in 50 mM Tris, 150 mM NaCl, 0.6 mM MeO-Succ-Ala-Ala-Ala-Pro-Val-pNA at pH 8.6, measuring the rate of increase in absorbance at 405 nm.

intracellular elastase = assay: Oral in vivo hamster model using IL-8 induced lung infiltrates for assessment of intracellular elastase inhibition; conditions: in vivo hamster IL-8 test, at a dose of less than 10 mg/kg
Protocol: In vivo activity of inhibitors of human neutrophil elastase:
An oral in vivo model using IL-8 induced lung infiltrates for the assessment of intracellular elastase inhibition
Adult hamsters (100-150 g) are randomised into groups (n=4) and fasted overnight. Under gaseous anaesthetic (3% isofluorane) animals are dosed orally with 1 mL/100 g water as vehicle or containing predissolved compounds. Either at the same time, or subsequently under anaesthetic, animals are dosed intratracheally with 1 ug recombinant human IL-8 in 100 uL sterile saline. Six hours after IL-8 dosing animals are sacrificed using intraperitoneal pentobarbitone. The lungs are lavaged with 2×2.5 mL sterile saline and femurs are removed by dissection.
Intracellular elastase is prepared from neutrophils collected by lavage and from femoral bone marrow. This is achieved by sonication of the neutrophils and centrifugation to yield intracellular granules. These are disrupted by freeze/thawing and sonication. Elastase and myeloperoxidase assays are then performed on these samples to assess the efficacy of the compounds and to normalise for neutrophil recovery.

Compound	IC50 [1] [nM]	IC50 (elastase) [nM]	duration of action (intracellular elastase)
CC(C)[C@H]1C(=O)N(S(C)(=O)=O)[C@H]2CCN(C(=O)C3CN(CC4CC4)C3)[C@H]12 (relative stereo) [Example 1, rel-(3R,3aR,6aS)-4-(1-CyclopropyImethyl-azetidine-3carbonyl)-3-isopropyl-1-methanesulfonyl-hexahydropyrrolo[3,2-b]pyrrol-2-one hydrochloride]	194	5400	
CC(C)[C@H]1C(=O)N(S(C)(=O)=O)[C@H]2CCN(C(=O)C3CN(Cc4ccccc4)C3)[C@H]12 (relative stereo) [Example 2, rel-(3R,3aR,6aS)-4-(1-Benzylazetidine-3-carbonyl)-3-isopropyl-1-methanesulfonyl-hexahydro-pyrrolo[3,2-b]pyrrol-2-one hydrochloride]	229	810	
CC(C)[C@H]1C(=O)N(S(C)(=O)=O)[C@H]2CCN(C(=O)C3CN(CC(C)(C)C)C3)[C@H]12.Cl (relative stereo) [Example 3, rel-(3R,3aR,6aS)-4-[1-(2,2-Dimethyl-propyl)-azetidine-3-carbonyl]-3-isopropyl-1-methanesulfonyl-hexahydro-pyrrolo[3,2-b]pyrrol-2-one hydrochloride]			at least 6 hours
CC(C)[C@H]1C(=O)N(S(C)(=O)=O)[C@H]2CCN(C(=O)C3CN(Cc4c(Cl)cccc4Cl)C3)[C@H]12 (relative stereo) [Example 4, rel-(3R,3aR,6aS)-4-[1-(2,6-Dichloro-benzyl)-azetidine-3-carbonyl]-3-isopropyl-1-methanesulfonyl-hexahydropyrrolo[3,2-b]pyrrol-2-one hydrochloride]	210	1200	
CCCCN1CC(C(=O)N2CC[C@H]3[C@H]2[C@@H](C(C)C)C(=O)N3S(C)(=O)=O)C1 (relative stereo) [Example 5, rel-(3R,3aR,6aS)-4-(1-Butyazetidine-3-carbonyl)-3-isopropyl-1-methanesulfonyl-hexahydro-pyrrolo[3,2-b]pyrrol-2-one hydrochloride]	93	1700	
